This is an account of results in ChEMBL document CHEMBL5338717, “Discovery of novel PDE4 inhibitors targeting the M-pocket from natural mangostanin with improved safety for the treatment of Inflammatory Bowel Diseases” (Eur J Med Chem, 2022).

Activity calls are given as the source filed them. No cut-off for these calls is given here. A value given as a limit tells only on which side of the number the result lay.

Series [1] addresses T1, 3',5'-cyclic-AMP phosphodiesterase 4D (Homo sapiens, UniProt Q08499). Description: Inhibition of recombinant PDE4D2 (86 to 413 residues) (unknown origin) expressed in Escherichia coli BL21 using [3H]cAMP as substrate incubated for 15 mins by liquid scintillation method.
The nature of series [2]: Metabolic stability in rat liver microsomes assessed as half life. Format: ADME, Microsome. Background: Liver microsomes are a subcellular fraction often used to study metabolism.
Series [3] deals with Mus musculus. The series can be described thus: Anti-inflammatory bowel disease activity in DSS-induced inflammatory bowel disease C57BL/6 mouse model assessed as increase in colon length at 25 mg/kg, iv BID and measured upto 8 days. It counts as functional, organism-based. The settings on record: time <= 8.0 day.
The test system of series [4] is Mus musculus. Description: Anti-inflammatory bowel disease activity in DSS-induced inflammatory bowel disease C57BL/6 mouse model assessed as decrease in epithelial damage in colon at 25 mg/kg, iv BID and measured after 8 days by Haematoxylin and eosin staining based microscopy. It counts as functional, organism-based. The following applies: time 8.0 day.
Series [5] concerns Mus musculus. The series can be described thus: Anti-inflammatory bowel disease activity in DSS-induced inflammatory bowel disease C57BL/6 mouse model assessed as decrease in loss of crypt architecture in colon at 25 mg/kg, iv BID and measured after 8 days by Haematoxylin and eosin staining based microscopy. The settings on record: time 8.0 day. It counts as functional, organism-based.

Series [6] in a line: Inhibition of PDE7 (unknown origin). Further details: species or system Homo sapiens.
Series [7] relates to Mus musculus. The series can be described thus: Anti-inflammatory bowel disease activity in DSS-induced inflammatory bowel disease C57BL/6 mouse model assessed as decrease in IL-6 mRNA expression level in colon at 25 mg/kg, iv BID and measured after 8 days by real-time PCR analysis. It counts as functional, organism-based. The settings on record: time 8.0 day.
Series [8] concerns Mus musculus. Description: Anti-inflammatory bowel disease activity in DSS-induced inflammatory bowel disease C57BL/6 mouse model assessed as decrease in diarrhoea by measuring disease activity index score at 25 mg/kg, iv BID and measured upto 8 days. The following applies: time <= 8.0 day. Format: functional, organism-based.
Series [9] addresses T1, 3',5'-cyclic-AMP phosphodiesterase 4D. The series can be described thus: Inhibition of PDE4D2 (unknown origin).
The test system of series [10] is Mus musculus. Description: Anti-inflammatory bowel disease activity in DSS-induced inflammatory bowel disease C57BL/6 mouse model assessed as decrease in IL-10 mRNA expression level in colon at 25 mg/kg, iv BID and measured after 8 days by real-time PCR analysis. It counts as functional, organism-based. The following applies: time 8.0 day. In general terms: In qPCR the cycle at which signal appears reflects the starting amount.

Series [11] deals with Mus musculus. The series can be described thus: Anti-inflammatory bowel disease activity in DSS-induced inflammatory bowel disease C57BL/6 mouse model assessed as decrease in rectal bleeding by measuring disease activity index score at 25 mg/kg, iv BID and measured upto 8 days by Haem-occult test. It counts as functional, organism-based. The following applies: time <= 8.0 day.

For series [12], the system named is Mus musculus. Description: Anti-inflammatory bowel disease activity in DSS-induced inflammatory bowel disease C57BL/6 mouse model assessed as decrease in mucosal ulceration in colon at 25 mg/kg, iv BID and measured after 8 days by Haematoxylin and eosin staining based microscopy. It counts as functional, organism-based. The following applies: time 8.0 day.
Series [13] concerns Mus musculus. The series can be described thus: Anti-inflammatory bowel disease activity in DSS-induced inflammatory bowel disease C57BL/6 mouse model assessed as decrease in goblet cells in colon at 25 mg/kg, iv BID and measured after 8 days by Haematoxylin and eosin staining based microscopy. Format: functional, organism-based. The following applies: time 8.0 day.
Series [14] concerns Mus musculus. The series can be described thus: Anti-inflammatory bowel disease activity in DSS-induced inflammatory bowel disease C57BL/6 mouse model assessed as decrease in IFN-gamma mRNA expression level in colon at 25 mg/kg, iv BID and measured after 8 days by real-time PCR analysis. It counts as functional, organism-based. The following applies: time 8.0 day.
For series [15], the system named is Mus musculus. The series can be described thus: Anti-inflammatory bowel disease activity in DSS-induced inflammatory bowel disease C57BL/6 mouse model assessed as decrease in TNF-alpha mRNA expression level in colon at 25 mg/kg, iv BID and measured after 8 days by real-time PCR analysis. Format: functional, organism-based. The following applies: time 8.0 day.

Series [16] concerns Mus musculus. Description: Anti-inflammatory bowel disease activity in DSS-induced inflammatory bowel disease C57BL/6 mouse model assessed as increase in body weight at 25 mg/kg, iv BID and measured after 8 days […]. Format: functional, organism-based. The following applies: time 8.0 day.
The test system of series [17] is Mus musculus. Description: Anti-inflammatory bowel disease activity in DSS-induced inflammatory bowel disease C57BL/6 mouse assessed as decrease in neutrophil infiltration in colon at 25 mg/kg, iv BID and measured after 8 days by Haematoxylin and eosin staining based microscopy. It counts as functional, organism-based. The following applies: time 8.0 day.
Series [18] deals with Mus musculus. The series can be described thus: Anti-inflammatory bowel disease activity in DSS-induced inflammatory bowel disease C57BL/6 mouse model assessed as decrease in body weight loss by measuring disease activity index score at 25 mg/kg, iv BID and measured upto 8 days. Format: functional, organism-based. The settings on record: time <= 8.0 day.
Series [19] can be described thus: Toxicity in twelve hrs fasted Beagle dog assessed as emesis at 1 mg/kg,po and measured upto 180 mins. It counts as organism-based, Canis lupus familiaris. The settings on record: in vivo, 3 h.

T1 sequence (Q08499 whole entry, the tested form may be a part): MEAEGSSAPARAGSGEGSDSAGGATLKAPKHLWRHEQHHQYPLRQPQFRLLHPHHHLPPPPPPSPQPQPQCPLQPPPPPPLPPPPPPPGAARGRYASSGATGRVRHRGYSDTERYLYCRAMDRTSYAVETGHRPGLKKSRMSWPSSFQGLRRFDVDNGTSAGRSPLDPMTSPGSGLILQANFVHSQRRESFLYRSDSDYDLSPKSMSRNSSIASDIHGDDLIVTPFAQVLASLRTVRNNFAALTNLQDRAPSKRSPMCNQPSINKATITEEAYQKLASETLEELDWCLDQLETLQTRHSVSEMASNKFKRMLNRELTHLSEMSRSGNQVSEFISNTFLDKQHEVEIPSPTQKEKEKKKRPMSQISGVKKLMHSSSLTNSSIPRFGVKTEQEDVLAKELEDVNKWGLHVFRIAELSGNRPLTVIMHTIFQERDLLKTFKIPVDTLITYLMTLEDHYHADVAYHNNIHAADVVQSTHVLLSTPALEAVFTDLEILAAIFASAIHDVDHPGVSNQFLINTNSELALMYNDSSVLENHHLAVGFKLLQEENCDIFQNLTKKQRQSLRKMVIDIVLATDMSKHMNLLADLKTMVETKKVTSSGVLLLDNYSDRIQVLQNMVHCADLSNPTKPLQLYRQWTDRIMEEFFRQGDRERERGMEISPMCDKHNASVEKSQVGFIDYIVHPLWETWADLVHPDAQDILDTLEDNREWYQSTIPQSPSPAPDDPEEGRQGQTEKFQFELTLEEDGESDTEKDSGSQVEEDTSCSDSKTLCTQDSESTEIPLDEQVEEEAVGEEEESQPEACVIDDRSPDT

The term IC50 denotes the concentration needed to halve the response being measured. Consider `COc1c(OCc2cccc(F)c2)cc2oc3cc4c(c(OCc5ccccn5)c3c(=O)c2c1CC=C(C)C)C=CC(C)(C)O4`, for which the IC50 in series [1] was 9.3 nM.

Broadly, the half-life is the time in which the quantity being followed falls by half. As for `COc1c(OCc2ccncc2)cc2oc3cc4c(c(OCc5ccncc5)c3c(=O)c2c1CC=C(C)C)C=CC(C)(C)O4`, the IC50 in [1] worked out at 10.6 nM. Besides, the half-life in series [2] is 16 min.

Take `COc1c(O)cc2oc3cc4c(c(OCc5ccccn5)c3c(=O)c2c1CC=C(C)C)C=CC(C)(C)O4`: the IC50 in series [1] amounted to 203 nM. Besides, the half-life in series [2] turned out to be 0.9 min.

As to `COc1c(OCc2ccccn2)cc2oc3cc4c(c(OCc5ccccn5)c3c(=O)c2c1CC=C(C)C)C=CC(C)(C)O4`, the IC50 in [1] was found to be 6.5 nM. The half-life in [2] came to 3 min.

Regarding `COc1c(OCc2cccc(F)c2)cc2oc3cc4c(c(OCc5ccncc5)c3c(=O)c2c1CC=C(C)C)C=CC(C)(C)O4`, the IC50 in series [1] was 7.8 nM.

`COc1c(O)cc2oc3cc4c(c(OCc5ccncc5)c3c(=O)c2c1CC=C(C)C)C=CC(C)(C)O4`: the IC50 in series [1] worked out at 25 nM. In addition, the half-life in series [2] came out at 6.7 min.

For `COc1c(O)cc2oc3cc4c(c(OCc5cccnc5)c3c(=O)c2c1CC=C(C)C)C=CC(C)(C)O4`, the IC50 in [1] was above 1000 nM.

With `COc1cc2oc3cc4c(c(OCc5ccncc5)c3c(=O)c2c(CC=C(C)C)c1OC)C=CC(C)(C)O4`, in [1], the IC50 was found to be 11.7 nM. For the same compound, the half-life in series [2] amounted to 2.08 min.

For `COc1c(OCc2ccccc2)cc2oc3cc4c(c(OCc5ccncc5)c3c(=O)c2c1CC=C(C)C)C=CC(C)(C)O4`, the 50% inhibitory concentration (IC50) in series [1] was 1.4 nM. Also, the half-life in series [2] was 315 min.

On to `COc1c(OCc2ccc(F)cc2)cc2oc3cc4c(c(OCc5ccccn5)c3c(=O)c2c1CC=C(C)C)C=CC(C)(C)O4`, for which the IC50 in series [1] came to 20.2 nM.

Take `COc1c(OCc2ccc(F)cc2)cc2oc3cc4c(c(OCc5ccncc5)c3c(=O)c2c1CC=C(C)C)C=CC(C)(C)O4`: the IC50 in series [1] stood at 1.4 nM. The half-life in series [2] was 33 min.

Regarding `CCOc1cc2oc3cc4c(c(OCc5ccncc5)c3c(=O)c2c(CC=C(C)C)c1OC)C=CC(C)(C)O4`, the IC50 in series [1] was 10.2 nM. In addition, the half-life in series [2] was determined as 2.98 min.

Consider `OCCN(CCO)c1nc(N2CCCCC2)c2nc(N(CCO)CCO)nc(N3CCCCC3)c2n1` [DIPYRIDAMOLE], for which the outcome with Mus musculus [3], in the series on Mus musculus [4], with Mus musculus [5], in the series with Mus musculus [7], with Mus musculus [8] and in the series with Mus musculus [10] was Active. Further, the outcome with Mus musculus [11], in the series on Mus musculus [12], in the series on Mus musculus [13], with Mus musculus [14], with Mus musculus [15] and in the series with Mus musculus [17] was Active. For the same compound, the result with Mus musculus [18] was Active. In addition, the IC50 in [6] was 600 nM; in series [9] it was 2800 nM. The outcome in the series on Mus musculus [16] was inactive.

Take `COc1ccc(C2CNC(=O)C2)cc1OC1CCCC1` (stereo not drawn) [ROLIPRAM]: the Activity entry in series [19] was “Toxic”.

As for `COc1c(OC(C)C)cc2oc3cc4c(c(OCc5ccncc5)c3c(=O)c2c1CC=C(C)C)C=CC(C)(C)O4`, in series [1], the IC50 amounted to 5.2 nM. Further, the half-life in series [2] came to 78 min.

`COc1c(OCc2ccc(F)cc2)cc2oc3cc4c(c(OCC5CCNCC5)c3c(=O)c2c1CC=C(C)C)C=CC(C)(C)O4`: the IC50 in series [1] worked out at 12.4 nM.

On to `COc1c(O)cc2oc3cc4c(c(OCc5ccccc5)c3c(=O)c2c1CC=C(C)C)C=CC(C)(C)O4`, for which the IC50 in [1] is above 1000 nM.

Regarding `COc1c(O)cc2oc3cc4c(c(O)c3c(=O)c2c1CC=C(C)C)C=CC(C)(C)O4` [MANGOSTANIN], in [2], the half-life is 8.1 min.

On to `COc1c(OCc2ccc(F)cc2)cc2oc3cc4c(c(OCc5cccnc5)c3c(=O)c2c1CC=C(C)C)C=CC(C)(C)O4`, for which, in [1], the IC50 stood at 8.2 nM.
